# Results reported in patent US6113896A, “Pharmaceutical compositions containing ecotin and homologs thereof” (priority 1994, dated 2000).
# Tests used:
# FXa = assay: Ecotin·FXa dissociation rate constant (HLE trap); type: biochemical, human; conditions: calculated from (Ki)·(kon)
# Method: Determination of FXa dissociation rate constant The dissociation rate constant of the ecotin.cndot.FXa complex was measured using HLE to trap the free ecotin released from the complex. FXa (10 μM) was incubated for 1 h in TNCT buffer in the presence and absence of ecotin (12.5 μM) and diluted 1000-fold into TNCT buffer with and without HLE (500 nM). Aliquots (180 μl ) were removed at various times and initial rates of free FXa were measured at 405 nm with 20 μl of 5 mM Spectrozyme fXa. The product curve (free FXa versus time) was fit to equation 6; the value for koff was determined by nonlinear regression analysis.
# To measure the dissociation rate constant of ecotin from FXa, the complex was diluted 1000-fold into buffer containing a 50-fold excess of HLE to trap the free ecotin and prevent reassociation. In the absence of HLE, reassociation of ecotin with FXa was so rapid that free FXa was barely detectible (FIG. 4B). Progress of dissociation was monitored as the increase in hydrolysis rate of Spectrozyme fXa resulting from the increasing free FXa with time. Because HLE prevented reassociation the rate of dissociation of the E·I complex is given by equation (5): [formula] which upon integration gives equation (6): […]
# where [E] is the free [FXa] at any time t, [E.cndot.I]0 is the concentration of the complex at time zero, and koff is the first order dissociation rate constant. The time dependent E·I complex dissociation curve fit to equation (6) by nonlinear regression analysis is shown in FIG. 4B; the dissociation rate constant for ecotin tested is shown above in Table I.
# human FXa = assay: Equilibrium inhibition constant with Factor Xa (tight-binding analysis); type: biochemical; conditions: compared with wild type
# Method: Determination of Equilibrium Inhibition Constants Apparent Ki values (Ki *) for the inhibition of the enzymes tested by ecotin and mutants were measured as follows. All reactions were performed at 25° C. Stock solutions of trypsin were quantitated by active site burst titration with MUGB as previously described (Jameson, G. W. et al., Biochem. J. 131:107-117 [1973]) using a Fluoroskan II plate reader at excitation wavelength of 355 nm and emission wavelength of 460 nm. Data was collected on a Macintosh SE20 using either Delta Soft II Fl v3.31 software (BioMetallics). Active site titrated trypsin was then used to quantitate ecotin active sites using BAPA as the substrate; a stoichiometry of 1:1 was assumed (Chung, C. H. et al., supra). Factor Xa, Factor XIIa, plasma kallikrein, or HLE were then quantitated by active site titration using ecotin as a standard, again assuming 1:1 stoichiometry. In addition, the concentration of HLE was quantitated by methods previously described using a calibrated stock of α1 -proteinase inhibitor to titrate the HLE active sites (Beatty, K. et al., J. Biol. Chem. 255:3931-3934 [1980]); the same HLE active site concentration was determined using both ecotin and α1 -proteinase inhibitor. The substate for FXa was Spectrozyme fXa (0.5 mM); the substrate for FXIIa (0.5 mM) and plasma kallikrein was S2302 (0.5 mM); the substrate for HLE was MeOSuc-Ala-Ala-Pro-Val-pNA (0.4 mM). There was good agreement upon comparison of the protein concentrations determined by amino acid analysis, Bradford analysis (Bradford, M. M. Anal. Biochem. 72:248-254 (1976) or active site titrations for trypsin, ecotin, FXa, FXIIa, plasma kallikrein, and HLE.
# Therefore, apparent equilibrium dissociation values (Ki *) were determined using methods derived for tight-binding inhibitors (Morrison, J. F. Biochim. Biophys. Acta 185:269-286 [1969]), (Bieth, J. in Proteinase Inhibitors (Fritz, H., Tschesche, H., Greene, L. J. and Truscheit, E., Ed.) pp 463-469, Springer-Verlag, New York [1974]). Data were fit by nonlinear regression analysis to equation 1 and values for Ki * were determined. [formula] where α is the fractional activity (steady-state inhibited rate divided by the uninhibited rate), [Eo ] is the total enzyme concentration, and [Io ] is the total ecotin concentration. Since the inhibitor and substrate compete for the same site, the true Ki value is related to Ki^* by the expression Ki =Ki */(1+[S]/Km), where Km is the Michaelis constant for the substrate, and [S] is the substrate concentration.
# a. […] Following a 1 hour incubation at room temperature to reach equilibration of the enzyme.cndot.inhibitor complex, 20 μl of 5 mM Spectrozyme fXa was added, and the steady-state rate of product formation measured by monitoring the change in absorbance at 405 nm. The Km for Spectrozyme fXa with FXa under these conditions was determined to be 0.23 mM by linear regression analysis of Lineweaver-Burke plots.
# HLE = conditions: relative to α1-proteinase inhibitor with P1 Met, literature; cited from earlier work
Substance,koff (values in parenthesis) (FXa) [s⁻¹],"inhibition of FXa, in words (human FXa)",decreased inhibition towards HLE (HLE)
M84A,0.00066,,
M84D,,significant inhibition,
M84E,0.00057,significant inhibition,
α1-Proteinase inhibitor (Pittsburgh): naturally occuring mutant of the serpin α1-proteinase inhibitor which has Arg in the P1 position instead of Met,,,"10,000 fold"
